Test results taken from US20250163104A1, “MACROCYCLIC IMMUNOMODULATORS” (priority 2021, published 2025).
*1 amine or outer side, *2 acyl side, *3 side chain or, on linkers, in order; H or OH if unused. Where a SMILES comes first, the peptide text is derived from it. Bridges are numbered along the chain shown (N, C = ends). [ ]: non-standard residue; d: D form. The star is where a group is joined. ξ: configuration not given here. X3 = O=C([C@H](CCCNC[C@@H](O)[C@H](O)[C@H](O)[C@@H](O)[C@H](O)CO)N[*:1])[*:2]; X4 = O=C([C@H](CCNC[C@@H](O)[C@H](O)[C@H](O)[C@@H](O)[C@H](O)CO)N[*:1])[*:2]; Ala(4-isoquinolinyl) = N[C@@H](Cc1cncc2ccccc12)C(=O)O; Phe(3-CF3) = N[C@@H](Cc1cccc(C(F)(F)F)c1)C(=O)O; Phe(3-Ph) = N[C@@H](Cc1cccc(-c2ccccc2)c1)C(=O)O; Ala(morpholin-4-yl) = N[C@@H](CN1CCOCC1)C(=O)O; Bip = N[C@@H](Cc1ccc(-c2ccccc2)cc1)C(=O)O; Phe(3-Me) = Cc1cccc(C[C@H](N)C(=O)O)c1; 3Pal = N[C@@H](Cc1cccnc1)C(=O)O; 4Pal = N[C@@H](Cc1ccncc1)C(=O)O; Cha = N[C@@H](CC1CCCCC1)C(=O)O; Cit = NC(=O)NCCC[C@H](N)C(=O)O; Thr(3ξ) = CC(O)[C@H](N)C(=O)O; Carboxymethyl = O=C(O)C*; NMeA = CN[C@@H](C)C(=O)O; Orn = NCCC[C@H](N)C(=O)O; Pra = C#CC[C@H](N)C(=O)O; Dab = NCC[C@H](N)C(=O)O; Nva = CCC[C@H](N)C(=O)O; Dap = NC[C@H](N)C(=O)O

The compounds below were run against T1, human PD-1 / PD-L1-Ig binding on Jurkat cell line over-expressing human PD-1 (Jurkat-PD-1) (Homo sapiens, UniProt Q15116) (assay: Jurkat-PD-1 Cell Binding High-Content Screening Assay (CBA)). Conditions: Jurkat-PD-1 cells, PE-labeled PD-L1-Ig 20 nM final; read-out: Jurkat HPD1_PDL1 IC50.
T1 construct: expressed in transfected cells; host or cells: Jurkat
Type: cell-based
Method in brief: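 Jurkat cells over-expressing human PD-1, in DMEM/10% FCS, pre-incubated with compound 2 h at 37° C. PE-labeled human PD-L1-Ig (20 nM final) added for 1 h; cells fixed in paraformaldehyde with Hoechst 33342 nuclear stain, washed, and bound fluorescence quantified by high-content imaging.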

T1 sequence (Q15116 25-288): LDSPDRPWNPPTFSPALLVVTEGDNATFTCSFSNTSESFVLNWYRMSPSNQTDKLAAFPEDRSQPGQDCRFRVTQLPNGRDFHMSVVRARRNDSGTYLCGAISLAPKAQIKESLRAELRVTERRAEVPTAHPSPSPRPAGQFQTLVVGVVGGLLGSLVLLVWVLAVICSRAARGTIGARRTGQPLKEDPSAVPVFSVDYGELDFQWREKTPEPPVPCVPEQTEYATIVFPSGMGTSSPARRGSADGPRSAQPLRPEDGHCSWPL

Row | SMILES | IC50 [µM]
1 | CC(C)C[C@@H]1NC(=O)[C@H](CCN)NC(=O)[C@@H](CC(C)C)NC(=O)[C@H](CCCN)NC(=O)[C@H](CCCNC(N)=O)NC(=O)[C@H](Cc2ccc(-c3ccccc3)cc2)NC(=O)[C@H](C(C)C)NC(=O)[C@H](Cc2c[nH]c3ccccc23)NC(=O)[C@H](CC(=O)O)NC(=O)[C@H](Cc2ccc(O)cc2)NC(=O)[C@H](Cc2ccncc2)NC(=O)CSC[C@@H](C(=O)N[C@@H](C)C(N)=O)NC(=O)[C@H]([C@@H](C)O)NC(=O)[C@H](C(C)C)NC1=O [Compound 1044] ({CH2CO}-[4Pal]YDWV[Bip][Cit][Orn][dL][Dab]LVTCA-NH2; thioether N-14) | 0.0261
2 | CC(C)C[C@H]1NC(=O)[C@H](CCCN)NC(=O)[C@H](CCC(=O)O)NC(=O)[C@H](Cc2ccc(-c3ccccc3)cc2)NC(=O)[C@H](C(C)C)NC(=O)[C@H](Cc2c[nH]c3ccccc23)NC(=O)[C@H](CC(=O)O)NC(=O)[C@H](Cc2ccc(OCC(=O)O)cc2)NC(=O)[C@H](Cc2ccc(OCC(=O)O)cc2)NC(=O)CSC[C@@H](C(=O)N[C@@H](C)C(N)=O)NC(=O)[C@H]([C@@H](C)O)NC(=O)[C@H](C(C)C)NC(=O)[C@H](CC2CCCCC2)NC(=O)[C@H](Cc2cnc[nH]2)NC1=O [Compound 1593] | 0.023
3 | CC(C)C[C@@H]1NC(=O)[C@H](Cc2c[nH]c3ccccc23)NC(=O)[C@H](CC(=O)O)NC(=O)[C@H](Cc2ccc(O)cc2)NC(=O)[C@H](Cc2ccccc2)NC(=O)CSC[C@@H](C(=O)N[C@@H](C)C(N)=O)NC(=O)[C@H](CO)NC(=O)[C@H](C(C)C)NC(=O)[C@H](CC(C)C)NC(=O)[C@H](CC(N)=O)NC(=O)[C@@H](CC(C)C)NC(=O)[C@H](CN)NC(=O)[C@H](CCC(=O)O)NC(=O)[C@H](Cc2ccc(-c3ccccc3)cc2)NC1=O [Compound 1226] ({CH2CO}-FYDWL[Bip]E[Dap][dL]NLVSCA-NH2; thioether N-14) | 0.0322
4 | Cc1cccc(C[C@@H]2NC(=O)[C@H](CC(=O)O)NC(=O)[C@H](Cc3ccncc3)NC(=O)[C@H](CN)NC(=O)CSC[C@@H](C(N)=O)NC(=O)[C@H]([C@@H](C)O)NC(=O)[C@H](C(C)C)NC(=O)[C@H](CC(C)C)NC(=O)[C@H](CCN)NC(=O)[C@@H](CC(C)C)NC(=O)[C@H](CCCN)NC(=O)[C@H](CCCNC(N)=O)NC(=O)[C@H](Cc3cccc(-c4ccccc4)c3)NC(=O)[C@H](C(C)C)NC2=O)c1 [Compound 1654] ({CH2CO}-[Dap][4Pal]D[Phe(3-Me)]V[Phe(3-Ph)][Cit][Orn][dL][Dab]LVTC-NH2; thioether N-14) | 0.124
5 | CC(C)C[C@H]1NC(=O)[C@H](CCCN)NC(=O)[C@H](CCCNC(N)=O)NC(=O)[C@H](Cc2ccc(-c3ccccc3)cc2)NC(=O)[C@H](C(C)C)NC(=O)[C@H](Cc2c[nH]c3ccccc23)NC(=O)[C@H](CC(=O)O)NC(=O)[C@H](Cc2cncc3ccccc23)NC(=O)[C@H](CN)NC(=O)CSC[C@@H](C(=O)N[C@@H](C)C(N)=O)NC(=O)[C@H]([C@@H](C)O)NC(=O)[C@H](C(C)C)NC(=O)[C@H](CC2CCCCC2)NC(=O)[C@H](CCN)NC1=O [Compound 2118] ({CH2CO}-[Dap][Ala(4-isoquinolinyl)]DWV[Bip][Cit][Orn][dL][Dab][Cha]VTCA-NH2; thioether N-14) | 0.0626
6 | C#CC[C@H](NC(=O)[C@@H]1CSCC(=O)N[C@@H](CCC)C(=O)N[C@@H](Cc2ccc(OCC(=O)O)cc2)C(=O)N[C@@H](CC(=O)O)C(=O)N[C@@H](Cc2cccc(C)c2)C(=O)N[C@@H](Cc2ccc(OCC(=O)O)cc2)C(=O)N[C@@H](Cc2ccc(-c3ccccc3)cc2)C(=O)N[C@@H](Cc2ccc(OCC(=O)O)cc2)C(=O)N[C@@H](CCCNC[C@@H](O)[C@H](O)[C@H](O)[C@@H](O)[C@H](O)CO)C(=O)N[C@H](CC(C)C)C(=O)N[C@@H](CCNC[C@@H](O)[C@H](O)[C@H](O)[C@@H](O)[C@H](O)CO)C(=O)N[C@@H](CC2CCCCC2)C(=O)N[C@@H](C(C)C)C(=O)N[C@@H](CCC(=O)O)C(=O)N1)C(=O)O [Compound 2700] ({CH2CO}-[Nva]Y(Carboxymethyl)D[Phe(3-Me)]Y(Carboxymethyl)[Bip]Y(Carboxymethyl)[X3][dL][X4][Cha]VEC[Pra]-OH; thioether N-14) | 0.0623
7 | Cc1cccc(C[C@@H]2NC(=O)[C@H](CC(=O)O)NC(=O)[C@H](Cc3ccc(OCC(=O)O)cc3)NC(=O)[C@H](Cc3cccnc3)NC(=O)CSC[C@@H](C(N)=O)NC(=O)[C@H]([C@@H](C)O)NC(=O)[C@H](C(C)C)NC(=O)[C@H](CC(C)C)NC(=O)[C@H](CCN)NC(=O)[C@@H](CC(C)C)NC(=O)[C@H](CCCN)NC(=O)[C@H](CCCNC(N)=O)NC(=O)[C@H](Cc3ccc(-c4ccccc4)cc3)NC(=O)[C@H](C(C)C)NC2=O)c1 [Compound 1655] ({CH2CO}-[3Pal]Y(Carboxymethyl)D[Phe(3-Me)]V[Bip][Cit][Orn][dL][Dab]LVTC-NH2; thioether N-14) | 0.28

Stronger by IC50, values ahead:

Row | IC50 [µM] | SMILES
8 | 0.0152 | CC(C)C[C@H]1NC(=O)[C@H](CCCN)NC(=O)[C@H](C(C)C)NC(=O)[C@H](Cc2ccc(-c3ccccc3)cc2)NC(=O)[C@H](C(C)C)NC(=O)[C@H](Cc2c[nH]c3ccccc23)NC(=O)[C@H](CC(=O)O)NC(=O)[C@H](Cc2ccc(OCC(=O)O)cc2)NC(=O)[C@H](C(C)O)NC(=O)CSC[C@@H](C(=O)N(C)[C@@H](C)C(N)=O)NC(=O)[C@H](CO)NC(=O)[C@H](C(C)C)NC(=O)[C@H](CC2CCCCC2)NC(=O)[C@H](CCN)NC1=O (stereo partly drawn) [Compound 2570] ({CH2CO}-[Thr(3ξ)]Y(Carboxymethyl)DWV[Bip]V[Orn][dL][Dab][Cha]VSC[NMeA]-NH2; thioether N-14)
9 | 0.0192 | CC[C@H](C)[C@@H]1NC(=O)[C@H](Cc2ccc(-c3ccccc3)cc2)NC(=O)[C@H](C(C)C)NC(=O)[C@H](Cc2c[nH]c3ccccc23)NC(=O)[C@H](CC(=O)O)NC(=O)[C@H](Cc2ccc(O)cc2)NC(=O)[C@H](Cc2ccccc2)NC(=O)CSC[C@@H](C(=O)N[C@@H](C)C(N)=O)NC(=O)[C@H]([C@@H](C)O)NC(=O)[C@H](C(C)C)NC(=O)[C@H](CC(C)C)NC(=O)[C@H](CCCNC(=N)N)NC(=O)[C@@H](CC(C)C)NC(=O)[C@H](CCCN)NC1=O [Compound 1144] ({CH2CO}-FYDWV[Bip]I[Orn][dL]RLVTCA-NH2; thioether N-14)
10 | 0.0095 | Cc1cccc(C[C@@H]2NC(=O)[C@H](CC(=O)O)NC(=O)[C@H](Cc3ccncc3)NC(=O)[C@H](CN)NC(=O)CSC[C@@H](C(=O)N[C@@H](C)C(N)=O)NC(=O)[C@H]([C@@H](C)O)NC(=O)[C@H](C(C)C)NC(=O)[C@H](CC3CCCCC3)NC(=O)[C@H](CCN)NC(=O)[C@@H](Cc3ccccc3)NC(=O)[C@H](CCCN)NC(=O)[C@H](CCC(=O)O)NC(=O)[C@H](Cc3ccc(-c4ccccc4)cc3)NC(=O)[C@H](C(C)C)NC2=O)c1 [Compound 1429] ({CH2CO}-[Dap][4Pal]D[Phe(3-Me)]V[Bip]E[Orn][dF][Dab][Cha]VTCA-NH2; thioether N-14)
11 | 0.0178 | COc1cccc(C[C@@H]2NC(=O)[C@H](CC(=O)O)NC(=O)[C@H](Cc3ccc(OCC(=O)O)cc3)NC(=O)[C@H](Cc3cccnc3)NC(=O)CSC[C@@H](C(=O)N[C@@H](C)C(N)=O)NC(=O)[C@H]([C@@H](C)O)NC(=O)[C@H](C(C)C)NC(=O)[C@H](CC3CCCCC3)NC(=O)[C@H](CCN)NC(=O)[C@@H](CC(C)C)NC(=O)[C@H](CCCN)NC(=O)[C@H](CCC(=O)O)NC(=O)[C@H](Cc3ccc(-c4ccccc4)cc3)NC(=O)[C@H](C(C)C)NC2=O)c1 [Compound 1545]
12 | 0.0177 | CC(C)C[C@H]1NC(=O)[C@H](CCCN)NC(=O)[C@H](CCC(=O)O)NC(=O)[C@H](Cc2ccc(-c3ccccc3)cc2)NC(=O)[C@H](C(C)C)NC(=O)[C@H](Cc2cccc(C(F)(F)F)c2)NC(=O)[C@H](CC(=O)O)NC(=O)[C@H](Cc2ccncc2)NC(=O)[C@H](CN)NC(=O)CSC[C@@H](C(=O)N[C@@H](C)C(N)=O)NC(=O)[C@H]([C@@H](C)O)NC(=O)[C@H](C(C)C)NC(=O)[C@H](CC2CCCCC2)NC(=O)[C@H](CCN)NC1=O [Compound 1459] ({CH2CO}-[Dap][4Pal]D[Phe(3-CF3)]V[Bip]E[Orn][dL][Dab][Cha]VTCA-NH2; thioether N-14)
13 | 0.0124 | CC(=O)NCCC[C@@H]1NC(=O)[C@H](C(C)C)NC(=O)[C@H](CC2CCCCC2)NC(=O)[C@H](CCN)NC(=O)[C@@H](CC(C)C)NC(=O)[C@H](CCCN)NC(=O)[C@H](Cc2ccc(OCC(=O)O)cc2)NC(=O)[C@H](Cc2ccc(-c3ccccc3)cc2)NC(=O)[C@H](Cc2ccc(O)cc2)NC(=O)[C@H](Cc2cccc(C)c2)NC(=O)[C@H](CC(=O)O)NC(=O)[C@H](Cc2ccc(OCC(=O)O)cc2)NC(=O)[C@H](CCCNC(=N)N)NC(=O)CSC[C@@H](C(N)=O)NC1=O [Compound 2054] ({CH2CO}-RY(Carboxymethyl)D[Phe(3-Me)]Y[Bip]Y(Carboxymethyl)[Orn][dL][Dab][Cha]V[Orn](Ac)C-NH2; thioether N-14)
14 | 0.0043 | C#CC[C@H](NC(=O)[C@H](CCN)NC(=O)[C@@H]1CSCC(=O)N[C@@H](CN2CCOCC2)C(=O)N[C@@H](Cc2ccc(OCC(=O)O)cc2)C(=O)N[C@@H](CC(=O)O)C(=O)N[C@@H](Cc2cccc(C)c2)C(=O)N[C@@H](Cc2ccc(OCC(=O)O)cc2)C(=O)N[C@@H](Cc2ccc(-c3ccccc3)cc2)C(=O)N[C@@H](Cc2ccc(OCC(=O)O)cc2)C(=O)N[C@@H](CCCN)C(=O)N[C@H](CC(C)C)C(=O)N[C@@H](CCN)C(=O)N[C@@H](CC2CCCCC2)C(=O)N[C@@H](C(C)C)C(=O)N[C@@H](CO)C(=O)N1)C(N)=O [Compound 1863] ({CH2CO}-[Ala(morpholin-4-yl)]Y(Carboxymethyl)D[Phe(3-Me)]Y(Carboxymethyl)[Bip]Y(Carboxymethyl)[Orn][dL][Dab][Cha]VSC[Dab][Pra]-NH2; thioether N-14)
